Reference: patent publication US10285985B2, “Pharmaceutical composition for treatment or prevention of neurodegenerative diseases” (NATIONAL UNIVERSITY CORPORATION OKAYAMA UNIVERSITY, priority 2015, dated 2019)
Where “and” joins values, the source holds several entries; their conditions need not be identical. Equal values may be shown once. Read-outs that look alike come from different tables or passages of the source.

How the values were obtained:
[1] = system: Parkinson's disease model rats; experiment: Apomorphine-induced rotation in Parkinson's disease model rats (6-OHDA); assay type: in vivo, SD rat; conditions: individual rats, Day 12, 0.015% w/w in feed, apomorphine 1 mg/kg i.p., 3 minutes
Description: A 8-week old male SD rat under isoflurane anesthesia was skin-incised on the head and then a connective tissue was dissected and removed. Then, the tissue was fixed on a brain stereotactic fixture, bregma and lambda coordinates were measured, a microinjection cannula was inserted at four points of administration coordinates AP (+1.3, +0.4, −0.4, −1.3 mm) and DV (−5.0 mm) at the depth of 5.0 mm from the brain surface, and 2 μL of a 3.5 mg/mL solution of 6-OHDA (6-hydroxydopamine) in a saline with 0.02% ascorbic acid as a solvent was infused at a rate of 1 μL/min. Similar surgical procedure was conducted for a sham group and saline with ascorbic acid alone was infused. Five minutes after infusion, the glass pipette was kept to be inserted for diffusing the solution. […] A rat with Parkinson's disease rotates to the left after apomorphine administration. An individual which rotated seven or more times in one minute after the initiation of the rotation was used as a Parkinson's disease model.
The rats were allowed to freely access to MF feed containing a 0.015% w/w RXR partial agonist. After 6 and 12 days, to the animal was intraperitoneally administered a 1 mg/mL solution of apomorphine in saline at 1 mg/kg, and the rotatory movement number for 3 minutes immediately after the administration was recorded.

[2] = mice, oral 30 mg/kg/day for one week; cited from earlier work
[3] = system: senescence-accelerated mouse (SAMP8); experiment: Y-maze test in senescence-accelerated mouse (SAMP8); assay type: in vivo; conditions: SAMP8 mice, 0.015% in feed; FIG. 5A
Description: In this test, the mice used in the step-through test were used as they were.
After the step-through test, a Y-maze for a mouse (arm length: 40 cm) was used and mice were allowed to freely move for 8 minutes. In a Y-shaped system, a near-side arm, a left-back arm and a right-back arm are A, B, and C, respectively, and the number of entry into each arm was recorded (here, “entry” is defined that both hind paws of a mouse enter an arm, and entry of forepaws only is defined as “not enter”). This is called as a Y-maze.

[4] = system: senescence-accelerated mouse (SAMP8); experiment: Blood data and organ weight in senescence-accelerated mouse (SAMP8) after 9 weeks of drug feed; assay type: in vivo; conditions: drug feed for 9 weeks, FIG. 7B, C
Description: After MRI imaging, the mice used in the above test were subjected to blood collection and then dissected, and blood data and the weight of each organ were recorded. Autopsy was conducted for the mice fed with MF feed containing a drug for 9 weeks. The animals were not fasted the day before the autopsy.

[5] = system: multiple sclerosis model mice (EAE mice); experiment: Multiple sclerosis model mice (EAE mice), clinical score; assay type: in vivo, C57BL6/J mice; conditions: 0.015 w/w % in feed, vs vehicle group, FIG. 8
[6] = Brain-migration ability: plasma and cerebral concentration by HPLC; assay type: in vivo, male ICR mice; conditions: for concentration at 1 h: mouse, one hour after 30 mg/kg single-dose administration, male ICR mice, ave ± SEM
Description: A compound was administered at a dose of 30 mg/kg mouse body weight. A compound to be administered was prepared by dissolving it in a 1% final concentration of ethanol and suspending the solution in a 0.5% carboxymethyl cellulose (CMC) solution. Animals subjected to administration were male ICR mice (6 week old), and they were fasted from 17 o'clock the day before.
The collected blood was put in a heparinized tube, mixed with inversion and then centrifuged (600 g) for 5 minutes to obtain plasma. To 100 μL of the plasma were added 100 μL of an ammonium acetate buffer solution and 1 mL of ethyl acetate, and the mixture was stirred by a vortex mixer for 30 seconds and then left at room temperature for 10 minutes. Then, the mixture was centrifuged 30 seconds and 800 μL of the supernatant was concentrated by a centrifugal evaporator. To the concentrate was added 100 μL of an HPLC eluent to prepare an HPLC sample.
Under ether anesthesia, the brain was removed from a mouse after administrating a drug, and about 100 mg of the brain was weighed into a 2 mL Eppendorf tube. After adding 1000 μL of methanol per 100 mg of the brain, the mixture was homogenized. After the homogenization, the homogenate was centrifuged at 10,000 g at 10 to 15° C. for 10 minutes. Then, in a separate 1.5 mL Eppendorf tube, 700 μL of the supernatant […] was dispensed and concentrated to dryness by a centrifugal evaporator. To the concentrate was added 70 μL of the HPLC eluent, to give a solution (10× concentrate).
A 30 μM solution of the drug in methanol was prepared and diluted with the HPLC eluent (5 mM AcONH4, pH5, MeOH) to 10, 3, 1 and 0.3 μM. Using these, a calibration curve was formed. The plasma and the […] samples were subjected to measurement and a measured value was converted to a concentration.

CCN(c1ccc(OCC(C)C)c(C(C)C)c1)c1ccc(C(=O)O)cn1 [NEt-4IB]
rotatory movement number, Left ([1]; listed as NEt-41B): 53 and 18 and 6 and 0 and 32 | rotatory movement number, Right ([1]; listed as NEt-41B): 0 (4×) and 75 | liver weight vs vehicle group [2]: not a difference | tendency to weight gain (body weight change over a week) [2]: not observed | triglyceride level vs vehicle group [2]: not a difference

C=C(c1ccc(C(=O)O)cc1)c1cc2c(cc1C)C(C)(C)CCC2(C)C [bexarotene]
effect on SAMP8 hyperactivity (number of entry in the Y-maze arm) [3]: no effects | blood triglyceride ([4]; SAMP8 mice): increase | enlargement of the liver ([4]; SAMP8 mice): observed | blood triglyceride ([4]; SAMR1 mice): increase | enlargement of the liver ([4]; SAMR1 mice): observed | clinical score / amelioration of pathological model [5]: did not ameliorate

Cc1cc2c(cc1-n1nnc3cc(C(=O)O)ccc31)C(C)(C)CCC2(C)C [CBt-PMN]
migration to the brain compared with bexarotene ([6]; 30 mg/kg, mice, one hour): migrates more smoothly to the brain than bexarotene | concentration at 1 h ([6]; brain, read-out: Brain concentration): 11.4 ± 3.7 µM | concentration at 1 h ([6]; plasma, read-out: Plasma concentration): 15.8 ± 6 µM

CN1CCc2cccc3c2[C@H]1Cc1ccc(O)c(O)c1-3 [Apomorphine, apomorphine]
rotatory movement number, Left [1]: 11 and 19 and 9 and 4 and 16 | rotatory movement number, Right [1]: 0
